Assay results reported in BindingDB's records for patent US10266537 (St. Chuan University, 2019).

Molecular target: Tyrosine-protein kinase ABL1 [T315I] (Homo sapiens, UniProt P00519, T315I)
Experiment: Kinase Inhibition Assays

SMILES: C=CC(=O)N1CCC(n2nc(C#Cc3cc(C(=O)Nc4ccc(CN5CCN(C)CC5)c(C(F)(F)F)c4)ccc3C)c3c(N)ncnc32)CC1 [US10266537, Compound 121]
- IC50: 133 nM
